Data on eleven compounds can be found in patent US20200339548A1, “PYRIMIDINE DERIVATIVES AND THEIR USE FOR THE TREATMENT OF CANCER” (Adorx Therapeutics Limited, priority 2017, published 2020).

The target in assay [1] is T1, Adenosine A2a receptor (Homo sapiens, UniProt P29274).
T1 construct: expressed in transfected cells; host or cells: CHO cell membranes
As to the kind of experiment: Adenosine receptor TR-FRET binding assay, A2a. Particulars: displacement of 100 nM CA200645, CHO cell membranes. As for the experimental part: (§1) All FRET binding experiments were conducted at room temperature in white 384-well plates, in assay binding buffer containing 1× LabMed (Cisbio, France), 100 μg/mL saponin, 1% DMSO and 0.02% pluronic acid. Binding of the fluorescently labelled Adenosine receptor antagonist XAC (CA200645, FRET acceptor) to terbium-labelled A1, A2a, A2b and A3 adenosine receptors (FRET donors) was detected by time-resolved FRET due to the close proximity of the donor and acceptor in a binding event. To investigate the ability of unlabelled test compounds to bind to Adenosine A1, A2a, A2b and A3 receptors, dose response curves were constructed that determined the ability of a range of concentrations to inhibit the binding of 30 nM CA200645 to the A2b receptor and 100 nM CA200645 to the A1, A2a, and A3 receptor.
(§2) Serial dilution (1:3 dilutions) of test compounds in neat DMSO and transfer of a 400 nL sample of test compound into the assay plate was carried out using the Mosquito (TTP Labtech, UK). The compound samples were incubated for 2 hours at room temperature with a fixed concentration of CA200645 defined for each receptor (see above) and CHO cell membranes containing the human Adenosine A1 (0.5 μg/well), A2a (0.3 μg/well), A2b (1 μg/well) or A3 (1 μg/well) receptor in 40 μL of assay buffer. Total and non-specific binding of CA200645 was determined in the absence and presence of 10 μM XAC, respectively.
(§3) Following 2 hours incubation, the level of CA200645 binding was detected on a Pherastar FSX (BMG Labtech, Germany) using standard TR-FRET settings. The terbium donor was excited with three laser flashes at a wavelength of 337 nm, and donor and acceptor emission was detected at 620 nm and 665 nm wavelengths, respectively. FRET ratios were obtained by multiplying the acceptor/donor ratio value by 10,000. Specific binding was determined by subtracting the non-specific binding FRET ratio from the total binding FRET ratio. Compound IC50 curves were analysed using GraphPad Prism 7.0 (GraphPad, USA) and Ki affinity values were determined from the obtained […] values using the method of Cheng and Prusoff.
For orientation: TR-FRET usually uses a lanthanide donor and a delayed reading to cut background.

The target in assay [2] is T2, Adenosine A3 receptor (Homo sapiens, UniProt P0DMS8).
T2 construct: expressed in transfected cells; host or cells: CHO cell membranes
T2 sequence (P0DMS8 1-318): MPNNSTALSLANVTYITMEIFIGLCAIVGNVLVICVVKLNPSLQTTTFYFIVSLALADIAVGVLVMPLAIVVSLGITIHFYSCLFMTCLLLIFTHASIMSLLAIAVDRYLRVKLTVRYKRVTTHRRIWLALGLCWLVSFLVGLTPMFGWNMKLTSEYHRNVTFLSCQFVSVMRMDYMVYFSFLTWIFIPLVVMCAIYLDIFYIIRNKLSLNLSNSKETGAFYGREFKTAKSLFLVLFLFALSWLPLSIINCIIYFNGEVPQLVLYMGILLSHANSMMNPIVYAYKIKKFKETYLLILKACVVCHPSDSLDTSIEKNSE
Description: Adenosine receptor TR-FRET binding assay, A3. Particulars: Table 9, further testing; displacement of 100 nM CA200645, CHO cell membranes; read-out: A3 Ki. The procedure:
as §1, §2, §3

The target in assay [3] is T3, Adenosine A1 receptor (Homo sapiens, UniProt P30542).
T3 construct: expressed in transfected cells; host or cells: CHO cell membranes
T3 sequence (P30542 1-326): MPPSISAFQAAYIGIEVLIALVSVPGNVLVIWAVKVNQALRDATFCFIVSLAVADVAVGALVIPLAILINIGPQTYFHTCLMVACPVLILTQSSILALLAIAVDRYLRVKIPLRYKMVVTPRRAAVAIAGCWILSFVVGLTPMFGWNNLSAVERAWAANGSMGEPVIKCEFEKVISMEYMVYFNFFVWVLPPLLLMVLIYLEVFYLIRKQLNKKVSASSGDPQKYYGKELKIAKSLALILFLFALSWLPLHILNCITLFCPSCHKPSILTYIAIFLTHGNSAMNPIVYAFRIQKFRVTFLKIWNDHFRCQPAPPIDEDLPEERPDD
As to the kind of experiment: Adenosine receptor TR-FRET binding assay, A1. Particulars: Table 9, further testing; displacement of 100 nM CA200645, CHO cell membranes. As for the experimental part:
as §1, §2, §3

For assay [4], the target named is T4, Adenosine A2b receptor (Homo sapiens, UniProt P29275).
T4 construct: expressed in transfected cells; host or cells: CHO cell membranes
T4 sequence (P29275 1-332): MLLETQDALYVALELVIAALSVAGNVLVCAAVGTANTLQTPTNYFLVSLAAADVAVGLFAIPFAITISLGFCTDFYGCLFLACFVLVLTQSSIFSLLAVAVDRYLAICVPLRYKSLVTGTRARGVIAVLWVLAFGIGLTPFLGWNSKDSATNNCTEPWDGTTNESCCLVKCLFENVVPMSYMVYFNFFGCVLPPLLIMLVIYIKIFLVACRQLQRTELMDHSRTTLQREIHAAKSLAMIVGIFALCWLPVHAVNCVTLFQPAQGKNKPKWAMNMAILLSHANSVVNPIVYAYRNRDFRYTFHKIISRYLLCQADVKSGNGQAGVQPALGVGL
Description: Adenosine receptor TR-FRET binding assay, A2b. Particulars: Table 9, further testing; displacement of 30 nM CA200645, CHO cell membranes. The procedure: as §1, §2, §3

T1 sequence (P29274 whole entry): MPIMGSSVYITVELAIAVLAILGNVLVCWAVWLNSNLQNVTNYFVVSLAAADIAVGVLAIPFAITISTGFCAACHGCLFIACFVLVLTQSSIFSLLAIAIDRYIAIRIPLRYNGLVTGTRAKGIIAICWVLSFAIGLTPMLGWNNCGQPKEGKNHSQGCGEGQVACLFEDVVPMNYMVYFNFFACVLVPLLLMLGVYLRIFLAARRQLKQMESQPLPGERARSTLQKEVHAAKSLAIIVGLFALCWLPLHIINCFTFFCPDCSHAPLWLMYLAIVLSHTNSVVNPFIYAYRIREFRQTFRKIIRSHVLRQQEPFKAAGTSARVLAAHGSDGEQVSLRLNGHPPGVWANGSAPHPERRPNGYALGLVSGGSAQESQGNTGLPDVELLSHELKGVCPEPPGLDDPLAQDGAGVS

Take `Nc1nc(-c2cccc(F)c2)ncc1C(=O)NCc1cccc(Cl)c1` [Example 10.2, 4-Amino-N-[(3-chlorophenyl)methyl]-2-(3-fluorophenyl)pyrimidine-5-carboxamide]: the Ki – broadly, a measure of affinity in units of concentration, obtained from inhibition or displacement – worked out at 194 nM in assay [1] (Table 8, Cheng and Prusoff); 194 nM in assay [1] (Table 9, further testing); 582 nM in assay [2]; 280 nM in assay [3]; 1480 nM in assay [4].
As to `Cc1cccc(CNC(=O)c2cnc(-c3ccco3)nc2N)c1` [Example 5.34, 4-Amino-2-(2-furyl)-N-(m-tolylmethyl) pyrimidine-5-carboxamide], the Ki in assay [1] (Table 9, further testing) came out at 10 nM; in assay [2], 1910 nM; in assay [3], 1040 nM; in assay [4] it was 1410 nM.
As for `Nc1nc(-c2cccc(F)c2)ncc1C(=O)NCc1cccc(C(F)(F)F)c1` [Example 10.11, 4-Amino-2-(3-fluorophenyl)-N-[[3-(trifluoromethyl)phenyl]methyl]pyrimidine-5-carboxamide], the Ki in assay [1] (Table 8, Cheng and Prusoff) worked out at 976 nM; in assay [1] (Table 9, further testing) it was 976 nM; in assay [2], 1850 nM; in assay [3], 632 nM; in assay [4], 3190 nM.
`Nc1nc(-c2cccc(F)c2)ncc1C(=O)NCc1ccccc1Cl` [Example 10.5, 4-Amino-N-[(2-chlorophenyl)methyl]-2-(3-fluorophenyl)pyrimidine-5-carboxamide]: the Ki was 137 nM in assay [1] (Table 8, Cheng and Prusoff); 137 nM in assay [1] (Table 9, further testing); 300 nM in assay [2]; 658 nM in assay [3]; 2970 nM in assay [4].
`Nc1nc(-c2cccc(F)c2)ncc1C(=O)NCc1ccc(F)cc1` [Example 10.4, 4-Amino-2-(3-fluorophenyl)-N-[(4-fluorophenyl)methyl]pyrimidine-5-carboxamide]: the inhibitory constant (Ki) in assay [1] (Table 8, Cheng and Prusoff) was 959 nM; in assay [1] (Table 9, further testing), 959 nM; in assay [2], 1820 nM; in assay [3] it was 3800 nM; in assay [4] it was 6060 nM.
For `Nc1nc(-c2ccco2)ncc1C(=O)NCc1ccc(F)cc1` [Example 5.14, 4-Amino-N-[(4-fluorophenyl)methyl]-2-(2-furyl)pyrimidine-5-carboxamide], the Ki in assay [1] (Table 8, Cheng and Prusoff) came out at 33 nM; in assay [1] (Table 9, further testing) it was 33 nM; in assay [2] it was 1820 nM; in assay [4], 6630 nM.
For `Cc1cccnc1CNC(=O)c1cnc(-c2ccc(F)cc2)nc1N` [Example 14, 4-Amino-2-(4-fluorophenyl)-N-[(3-methyl-2-pyridyl)methyl]pyrimidine-5-carboxamide], the Ki was 744 nM in assay [1] (Table 8, Cheng and Prusoff); 744 nM in assay [1] (Table 9, further testing); 202 nM in assay [2]; 740 nM in assay [3].
On to `CC(C)n1ncnc1CNC(=O)c1c(N)nc(-c2cccc(C#N)c2)nc1OCCF` [Example 24.4, 4-Amino-2-(3-cyanophenyl)-6-(2-fluoroethoxy)-N-[(2-isopropyl-1,2,4-triazol-3-yl)methyl]pyrimidine-5-carboxamide], for which the Ki in assay [1] (Table 9, further testing) was found to be 1.08 nM; in assay [2] it was 611 nM; in assay [3], 22 nM.
On the same counts, the results for `Nc1nc(-c2ccco2)ncc1C(=O)NCc1cc(F)cc(C(F)(F)F)c1` [Example 5.44, 4-Amino-N-[[3-fluoro-5-(trifluoromethyl)phenyl]methyl]-2-(2-furyl)pyrimidine-5-carboxamide] are 78 nM, 1090 nM and 364 nM.
Consider `Cc1cccnc1CNC(=O)c1c(N)nc(-c2ccco2)nc1-n1cccn1` [Example 19, 4-Amino-2-(2-furyl)-N-[(3-methyl-2-pyridyl)methyl]-6-pyrazol-1-yl-pyrimidine-5-carboxamide], for which the Ki in assay [1] (Table 8, Cheng and Prusoff) was 105 nM; in assay [1] (Table 9, further testing), 105 nM; in assay [2], 675 nM; in assay [3], 871 nM.
For the compound `Cc1cccnc1CNC(=O)c1c(N)nc(-c2ccco2)nc1OCCN1CCNCC1` [Example 23.2, 4-Amino-2-(2-furyl)-N-[(3-methyl-2-pyridyl)methyl]-6-(2-piperazin-1-ylethoxy)pyrimidine-5-carboxamide], the Ki turned out to be 287 nM in assay [1] (Table 9, further testing); 6700 nM in assay [2]; 7550 nM in assay [3].
